Two compounds from patent US6462024B1, “Use of inhibitors of the sodium-hydrogen exchanger for the production of a medicament for decreasing undesired effects of substrates of the heart” (Aventis Pharma Deutschland GmbH, priority 1997, dated 2002) can be followed below.

“Also recorded” adds a separate entry of the source.

This data set concerns isolated functioning rat heart. The data set can be described thus: low flow ischemia and reperfusion in the isolated functioning rat heart (working-heart mode). As to conditions: for Incidence of ventricular fibrillations (VF) / Mean duration of ventricular fibrillations (VF) / Incidence of ventricular tachycardias (VT) / Mean duration of ventricular tachycardias and fibrillations (VT + VF): cariporide 1 μmol/l, Rulide 20 mg/kg oral; for incidence of ventricular fibrillation during the reperfusion phase / length of ventricular arrhythmias during the reperfusion phase: macrolide (Rulide) group versus macrolide-pretreated hearts treated with cariporide. Also noted: species or system Wistar-Kyoto rats. As to the method: All investigations were carried out using hearts of Wistar-Kyoto rats (300-400 g body weight, BW). The rats were kept on a standard diet and had free access to water. The rats were anesthetized with pentobartital (60 mg/kg, i.p.), heparinized (500 I.U./100 g BW i.p.) and respirated with room air via a cannula which was inserted into the trachea. The thorax was then opened, and the heart was removed and placed in a 4° C. physiological solution. After cannulation of the aorta, the hearts were suspended in the unit and perfused in a retrograde manner according to the Langendorff method with an oxygenated (95% O2, 5% CO2), noncirculating Tyrode solution (in mmol/l: NaCl 124.6; KCl 4.0; CaCl2 2.2; MgCl2 1.1; NaHCO3 24.9; NaH2PO4 0.3; glucose 11.1) using a perfusion pressure of 51 mm Hg. The pulmonary artery and the left auricle were then cannulated and all pulmonary veins were ligated close to the auricle. After an equilibration phase of 15 minutes, the retrograde perfusion was changed into an anterograde perfusion (working-heart mode). At the same time, the filling pressure was adjusted to 11 mm Hg and the afterload to 51 mm Hg. The hearts were paced during the entire experiment at a frequency of 5 Hz. After 15 minutes in the working mode, the coronary flow was reduced by 90% in order to include a global low flow ischemia. The aortic pressure drops from 51 to 11 mm Hg in the course of this. This situation represents an angina pectoris attack in the patient. The low flow ischemia lasted 30 minutes. The hearts were then reperfused for 15 minutes in the Langendorff mode and for a further 15 minutes in the working mode. All animals received oral Rulide (macrolide, 20 mg/kg) dissolved in 1 ml of olive oil, or only 1 ml of olive oil (control), before the experiments. The Na^+/H^+ exchange inhibitor cariporide (1 μmol/l) and its vehicle (Tyrode solution) were added directly to the perfusion solution, i.e. immediately before the latter flows into the heart. The computer-controlled infusion of cariporide and the vehicle solution was begun 15 minutes before low flow ischemia and lasted for the entire experiment. The infusion quantity was 1:100th of the heart minute volume. The following parameters were measured 15 minutes before ischemia and at the end of the reperfusion phase: left ventricular pressure (LVP), left auricle pressure (LAP), aortic pressure (AP), heart-time volume (HTV), coronary flow (CF), aortic flow (AF), heart rate (HR), contractility (dP/dtmax), left ventricular pressure increase (LVPI) and the external heart work (EHW). From these values, the recovery (values after reperfusion based on the starting values before ischemia in %) was calculated. Moreover, the ECG was recorded during the entire experiment and the sum of the individual arrhythmia intervals (ventricular tachycardias and ventricular fibrillations) over the entire experimental period was formed.

Where [1] appears, read: pretreatment with Rulide, ischemia and reperfusion.

Consider `CC(C)c1ccc(C(=O)NC(=N)N)cc1S(C)(=O)=O` [Cariporide (HOE642), cariporide], for which the “incidence of ventricular fibrillation during the reperfusion phase” value was found to be 38% and the “length of ventricular arrhythmias during the reperfusion phase” value stood at 198 s. Moreover, for the setting “during ischemia”, the “effect on the arrhythmias during ischemia” value is “no effect”, the “Incidence of ventricular fibrillations (VF)” value (“Incidence … (VF)” below) came to 33% and the “Mean duration of ventricular fibrillations (VF)” value came to 38 ± 26 s. Also, under “during reperfusion”, the “Incidence … (VF)” value turned out to be 0%; the “Incidence of ventricular tachycardias (VT)” value worked out at 100%; the “Mean duration of ventricular tachycardias and fibrillations (VT + VF)” value turned out to be 204 ± 32 s. Besides, the “cardiotoxic effect of the macrolide” value (pretreatment of the heart with cariporide, ischemia and reperfusion) is recorded as “completely prevented; also recorded: completely inhibits”.

`CC[C@H]1OC(=O)[C@H](C)[C@@H](O[C@H]2C[C@@](C)(OC)[C@@H](O)[C@H](C)O2)[C@H](C)[C@@H](O[C@@H]2O[C@H](C)C[C@H](N(C)C)[C@H]2O)[C@](C)(O)C[C@@H](C)/C(=N\OCOCCOC)[C@H](C)[C@@H](O)[C@]1(C)O` [Rulide, reference compound]: the “incidence of ventricular fibrillation during the reperfusion phase” value is on record as 100% and the “length of ventricular arrhythmias during the reperfusion phase” value turned out to be 1709 s. For the same compound, for the setting “during ischemia”, the “Incidence … (VF)” value is listed as 100% and the “Mean duration of ventricular fibrillations (VF)” value was 181 ± 79 s. Under “during reperfusion”, the “Incidence … (VF)” value is given as 100%; the “Incidence of ventricular tachycardias (VT)” value worked out at 100%; the “Mean duration of ventricular tachycardias and fibrillations (VT + VF)” value is 1709 ± 319 s. Moreover, under setting [1], the “incidence and duration of ventricular arrhythmias compared with the control group” value is “increase in the incidence and the duration of ventricular arrhythmias”; the “recovery compared with the control group” value is “further impairment of recovery”.
